Legend:
Potassium Channel [KATP] = Potassium Channel [KATP] (Cricetus cricetus, UniProt Q09427); assay: Eurofins radioligand binding; settings: Hamster
Muscarinic M3 = Muscarinic M3 (Homo sapiens, UniProt P20309); assay: Eurofins radioligand binding
Glucocorticoid = Glucocorticoid (Homo sapiens, UniProt P04150); assay: Eurofins radioligand binding
3A4 = 3A4 (Homo sapiens, UniProt P08684); assay: CYP450 phenotyping, recombinant enzymes; type: in vitro ADME; settings: 3A4, panel of eight recombinant enzymes
hERG = target: T1, hERG (Homo sapiens, UniProt Q12809); assay: functional hERG manual patch clamp (MPC) assay; type: cell-based
T1 construct: Charles River

Glutamate, NMDA, Agonism = assay: Eurofins radioligand binding; settings: Rat
Adenosine A2A = Adenosine A2A (Homo sapiens, UniProt P29274); assay: Eurofins radioligand binding
Cannabinoid CB1 = Cannabinoid CB1 (Homo sapiens, UniProt P21554); assay: Eurofins radioligand binding
[1] = target: Nicotinic Acetylcholine α3β4 (Homo sapiens, UniProt P30926+P32297); assay: Eurofins radioligand binding
[2] = plasma protein binding, equilibrium dialysis (cyno); type: in vitro ADME; settings: cynomolgus monkey, pH 7.4, cyno (c), read-out: fu,plasma
Procedure: (§1) Plasma protein binding and Brain homogenate binding: Determination of fraction unbound (f u) in plasma was conducted in vitro via equilibrium dialysis using HTDialysis (HTD) membrane plates. The top half of the plate was filled with 100 uL of Dubelco’s Phosphate Buffered Saline, pH 7.4 (DPBS). Compounds were diluted into plasma from each species (5 µM final concentration), which was aliquoted in triplicate to the ‘bottom half’ of the prepared HTD plate wells. The HTD plate was sealed and incubated for 6 hours at 37 °C. Following incubation, each well (both top and bottom halves) were transferred (20 µL) to the corresponding wells of a 96-shallow-well (V-bottom) plate. […]
(§2) The unbound fraction (f u) was calculated following the equation below, and mean values for each species were calculated from 3 replicates.
(§3) A similar approach was used to determine the degree of brain homogenate binding, which employed the same methodology and procedure with the following modifications: 1) a final compound concentration of 1 μM was used, 2) naïve rat brains were homogenized in DPBS (1:3 composition of brain: DPBS, w/w) using a Mini-Bead Beater™ machine in order to obtain brain homogenate, which was then treated in the same manner as the plasma samples in the previously described plasma protein binding assay. Fraction unbound for both plasma and brain samples was determined using Equation 4. […]

rat M1 = target: T2, rat M1 (Rattus norvegicus, UniProt P08482); assay: M1 agonist calcium mobilization assay (rat); type: cell-based
T2 construct: expressed in transfected cells
T2 sequence (P08482 1-460): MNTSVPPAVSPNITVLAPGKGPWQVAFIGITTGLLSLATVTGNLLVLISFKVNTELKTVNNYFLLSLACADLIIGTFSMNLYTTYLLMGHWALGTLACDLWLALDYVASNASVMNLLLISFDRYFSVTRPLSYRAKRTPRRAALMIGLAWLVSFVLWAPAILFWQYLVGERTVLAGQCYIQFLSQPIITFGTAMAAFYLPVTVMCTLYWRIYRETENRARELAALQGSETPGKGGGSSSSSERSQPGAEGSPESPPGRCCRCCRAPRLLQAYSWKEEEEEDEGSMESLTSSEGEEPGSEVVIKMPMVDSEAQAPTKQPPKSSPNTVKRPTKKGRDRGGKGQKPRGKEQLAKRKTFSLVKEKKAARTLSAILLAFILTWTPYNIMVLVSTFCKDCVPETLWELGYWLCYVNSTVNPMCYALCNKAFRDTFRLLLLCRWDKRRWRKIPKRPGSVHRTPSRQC

[3] = plasma protein binding, equilibrium dialysis (rat); type: in vitro ADME; settings: pH 7.4, rat (r), read-out: fu,plasma
Procedure: as §1, §2, §3

Serotonin (5-HT3) = Serotonin (5-HT3) (Homo sapiens, UniProt P46098); assay: Eurofins radioligand binding
Adenosine A1 = Adenosine A1 (Homo sapiens, UniProt P30542); assay: Eurofins radioligand binding
[4] = target: Leukotriene, Cysteinyl CysLT1 (Homo sapiens, UniProt Q9Y271); assay: Eurofins radioligand binding
[5] = satellite IP PK study, brain exposure; type: in vivo; settings: C57Bl6 mice, 30% captisol
Description: These effects were absent when performed in M1 KO mice, confirming that these AEs are in fact M1-mediated. […] Total brain drug levels correlate better with PD efficacy ,− , versus free drug levels in brain, as the arbitrarily selected EC20 value for the in vitro PAM EC50 potency determination likely underestimates endogenous ACh tone. Thus, there is a significant therapeutic index for PAM 7 from this assay, and robust target-mediated convulsions were not present. To assess peripheral cholinergic toxicity, a modified Irwin neurological battery was performed to score autonomic or somatosensory side effects (Figure ). […] Still, if the dose and exposure required for efficacy afforded the appropriate therapeutic window, then PAM 7 could still advance.

Opiate δ1 (OP1, DOP) = Opiate δ1 (OP1, DOP) (Homo sapiens, UniProt P41143); assay: Eurofins radioligand binding
Adrenergic α1A = Adrenergic α1A (Homo sapiens, UniProt P35348); assay: Eurofins radioligand binding
Dopamine D1 = Dopamine D1 (Homo sapiens, UniProt P21728); assay: Eurofins radioligand binding
Adrenergic β1 = Adrenergic β1 (Homo sapiens, UniProt P08588); assay: Eurofins radioligand binding
Chain of Adrenergic β1 (P08588 whole entry): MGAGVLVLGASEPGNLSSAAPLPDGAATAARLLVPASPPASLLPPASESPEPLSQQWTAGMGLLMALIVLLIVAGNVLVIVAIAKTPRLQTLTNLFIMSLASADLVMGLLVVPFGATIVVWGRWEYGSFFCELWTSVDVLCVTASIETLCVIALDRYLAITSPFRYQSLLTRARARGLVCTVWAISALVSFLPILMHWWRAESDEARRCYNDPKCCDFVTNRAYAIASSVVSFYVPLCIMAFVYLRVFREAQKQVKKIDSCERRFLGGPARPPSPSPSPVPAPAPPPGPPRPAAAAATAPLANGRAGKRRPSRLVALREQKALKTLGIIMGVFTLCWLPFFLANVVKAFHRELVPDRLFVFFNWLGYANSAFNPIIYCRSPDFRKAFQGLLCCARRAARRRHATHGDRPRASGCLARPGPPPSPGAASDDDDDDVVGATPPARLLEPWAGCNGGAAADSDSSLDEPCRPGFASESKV

Chain of Glucocorticoid (P04150 whole entry): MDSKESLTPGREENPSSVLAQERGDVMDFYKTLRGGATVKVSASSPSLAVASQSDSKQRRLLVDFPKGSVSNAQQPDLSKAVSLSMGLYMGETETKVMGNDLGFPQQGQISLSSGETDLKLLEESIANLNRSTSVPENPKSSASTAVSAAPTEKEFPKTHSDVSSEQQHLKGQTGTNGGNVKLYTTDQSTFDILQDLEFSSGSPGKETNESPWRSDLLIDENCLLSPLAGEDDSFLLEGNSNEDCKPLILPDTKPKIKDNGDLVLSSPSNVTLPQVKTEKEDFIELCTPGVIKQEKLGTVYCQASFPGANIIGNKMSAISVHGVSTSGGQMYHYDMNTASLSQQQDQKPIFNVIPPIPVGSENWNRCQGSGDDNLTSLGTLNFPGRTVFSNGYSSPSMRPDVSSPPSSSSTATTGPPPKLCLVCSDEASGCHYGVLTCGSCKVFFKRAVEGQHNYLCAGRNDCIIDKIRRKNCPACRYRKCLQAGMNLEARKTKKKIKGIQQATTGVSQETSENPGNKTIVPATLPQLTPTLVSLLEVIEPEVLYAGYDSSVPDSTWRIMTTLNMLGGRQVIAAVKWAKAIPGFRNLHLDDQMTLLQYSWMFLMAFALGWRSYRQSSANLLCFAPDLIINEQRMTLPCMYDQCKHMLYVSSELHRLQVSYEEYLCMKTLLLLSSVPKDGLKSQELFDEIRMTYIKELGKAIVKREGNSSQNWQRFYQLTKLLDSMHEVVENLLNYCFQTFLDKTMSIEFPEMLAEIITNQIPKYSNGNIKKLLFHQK
Chain of Leukotriene, Cysteinyl CysLT1 (Q9Y271 whole entry): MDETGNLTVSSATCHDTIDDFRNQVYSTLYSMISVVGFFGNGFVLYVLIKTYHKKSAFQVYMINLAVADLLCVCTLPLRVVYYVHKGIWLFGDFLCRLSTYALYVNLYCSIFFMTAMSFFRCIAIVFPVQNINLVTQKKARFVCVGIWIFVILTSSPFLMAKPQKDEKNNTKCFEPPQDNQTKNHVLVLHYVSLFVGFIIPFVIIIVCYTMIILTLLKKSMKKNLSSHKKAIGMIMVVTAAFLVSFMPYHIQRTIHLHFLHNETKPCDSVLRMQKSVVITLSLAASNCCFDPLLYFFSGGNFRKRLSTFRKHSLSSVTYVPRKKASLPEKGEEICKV
Chain of Dopamine D1 (P21728 whole entry): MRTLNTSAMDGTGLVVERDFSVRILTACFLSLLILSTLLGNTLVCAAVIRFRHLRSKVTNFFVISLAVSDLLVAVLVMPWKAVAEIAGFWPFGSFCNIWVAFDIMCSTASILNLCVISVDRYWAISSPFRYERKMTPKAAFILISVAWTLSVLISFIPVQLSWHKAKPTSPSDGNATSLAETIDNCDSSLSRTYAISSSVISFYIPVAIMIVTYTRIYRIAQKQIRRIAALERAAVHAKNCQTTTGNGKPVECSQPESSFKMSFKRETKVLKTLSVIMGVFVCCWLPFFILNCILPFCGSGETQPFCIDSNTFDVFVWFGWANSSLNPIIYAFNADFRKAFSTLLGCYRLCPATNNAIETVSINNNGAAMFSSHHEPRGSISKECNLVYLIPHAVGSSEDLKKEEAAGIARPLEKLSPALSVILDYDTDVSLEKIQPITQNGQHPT
Chain of Adenosine A2A (P29274 whole entry): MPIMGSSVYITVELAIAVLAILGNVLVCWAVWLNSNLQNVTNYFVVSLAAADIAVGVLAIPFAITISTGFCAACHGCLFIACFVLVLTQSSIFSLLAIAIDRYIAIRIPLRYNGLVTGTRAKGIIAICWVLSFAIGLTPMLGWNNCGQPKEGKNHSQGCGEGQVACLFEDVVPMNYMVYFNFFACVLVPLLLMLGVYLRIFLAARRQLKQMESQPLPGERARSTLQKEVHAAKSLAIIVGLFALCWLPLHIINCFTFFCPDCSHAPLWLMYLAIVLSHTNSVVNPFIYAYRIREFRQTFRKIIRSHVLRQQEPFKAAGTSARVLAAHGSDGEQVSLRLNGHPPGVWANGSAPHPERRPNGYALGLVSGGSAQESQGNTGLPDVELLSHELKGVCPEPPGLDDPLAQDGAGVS
Chain of 3A4 (P08684 whole entry): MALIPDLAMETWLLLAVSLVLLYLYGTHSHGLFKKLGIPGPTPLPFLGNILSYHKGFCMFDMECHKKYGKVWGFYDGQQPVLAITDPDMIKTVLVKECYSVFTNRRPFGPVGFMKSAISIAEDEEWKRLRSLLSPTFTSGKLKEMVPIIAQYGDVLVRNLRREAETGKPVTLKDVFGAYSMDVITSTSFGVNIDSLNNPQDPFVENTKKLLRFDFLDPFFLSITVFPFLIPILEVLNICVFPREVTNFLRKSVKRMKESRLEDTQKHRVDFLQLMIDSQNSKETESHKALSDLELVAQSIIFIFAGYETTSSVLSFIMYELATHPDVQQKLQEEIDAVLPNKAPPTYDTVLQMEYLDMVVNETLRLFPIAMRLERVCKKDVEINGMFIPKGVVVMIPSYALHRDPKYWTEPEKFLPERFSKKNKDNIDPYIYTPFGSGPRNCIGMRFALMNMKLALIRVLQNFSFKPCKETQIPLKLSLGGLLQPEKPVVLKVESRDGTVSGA
Chain of Adrenergic α1A (P35348 whole entry): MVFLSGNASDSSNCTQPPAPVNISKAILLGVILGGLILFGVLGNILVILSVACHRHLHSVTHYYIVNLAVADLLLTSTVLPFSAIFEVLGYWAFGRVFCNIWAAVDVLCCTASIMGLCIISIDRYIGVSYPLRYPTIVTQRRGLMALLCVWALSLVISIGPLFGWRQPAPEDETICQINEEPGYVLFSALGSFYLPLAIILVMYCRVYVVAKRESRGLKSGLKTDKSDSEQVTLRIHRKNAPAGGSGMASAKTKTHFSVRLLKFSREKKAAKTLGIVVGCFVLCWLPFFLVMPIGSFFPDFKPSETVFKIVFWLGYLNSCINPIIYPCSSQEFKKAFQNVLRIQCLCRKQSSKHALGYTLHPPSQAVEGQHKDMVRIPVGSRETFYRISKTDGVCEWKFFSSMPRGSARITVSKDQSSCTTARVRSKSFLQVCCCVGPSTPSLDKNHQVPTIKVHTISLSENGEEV
Chain of Opiate δ1 (OP1, DOP) (P41143 whole entry): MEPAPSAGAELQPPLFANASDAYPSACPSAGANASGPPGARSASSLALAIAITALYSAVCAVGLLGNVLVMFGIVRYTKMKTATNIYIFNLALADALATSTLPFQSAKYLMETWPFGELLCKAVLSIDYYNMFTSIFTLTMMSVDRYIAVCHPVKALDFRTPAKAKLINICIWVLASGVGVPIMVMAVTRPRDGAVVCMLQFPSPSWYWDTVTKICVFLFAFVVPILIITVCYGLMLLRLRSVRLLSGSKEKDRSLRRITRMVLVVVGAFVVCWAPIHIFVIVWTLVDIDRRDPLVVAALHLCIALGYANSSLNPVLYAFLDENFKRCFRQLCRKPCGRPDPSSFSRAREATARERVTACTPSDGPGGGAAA
Chain of Muscarinic M3 (P20309 whole entry): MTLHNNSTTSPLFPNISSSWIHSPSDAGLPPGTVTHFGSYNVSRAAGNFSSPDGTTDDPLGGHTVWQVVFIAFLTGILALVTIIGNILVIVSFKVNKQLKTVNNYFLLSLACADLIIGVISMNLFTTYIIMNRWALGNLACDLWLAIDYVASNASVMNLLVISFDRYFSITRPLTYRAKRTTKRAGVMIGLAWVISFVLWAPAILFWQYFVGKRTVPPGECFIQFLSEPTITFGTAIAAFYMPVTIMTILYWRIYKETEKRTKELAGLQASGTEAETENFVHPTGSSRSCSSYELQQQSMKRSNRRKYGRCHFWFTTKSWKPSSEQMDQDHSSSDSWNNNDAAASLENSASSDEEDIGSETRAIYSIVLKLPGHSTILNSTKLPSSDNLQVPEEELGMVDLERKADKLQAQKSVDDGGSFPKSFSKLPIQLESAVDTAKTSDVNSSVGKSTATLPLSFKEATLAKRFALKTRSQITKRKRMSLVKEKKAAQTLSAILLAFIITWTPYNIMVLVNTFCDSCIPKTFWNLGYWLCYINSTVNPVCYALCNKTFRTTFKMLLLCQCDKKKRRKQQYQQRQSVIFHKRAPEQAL
Chain of Serotonin (5-HT3) (P46098 24-478): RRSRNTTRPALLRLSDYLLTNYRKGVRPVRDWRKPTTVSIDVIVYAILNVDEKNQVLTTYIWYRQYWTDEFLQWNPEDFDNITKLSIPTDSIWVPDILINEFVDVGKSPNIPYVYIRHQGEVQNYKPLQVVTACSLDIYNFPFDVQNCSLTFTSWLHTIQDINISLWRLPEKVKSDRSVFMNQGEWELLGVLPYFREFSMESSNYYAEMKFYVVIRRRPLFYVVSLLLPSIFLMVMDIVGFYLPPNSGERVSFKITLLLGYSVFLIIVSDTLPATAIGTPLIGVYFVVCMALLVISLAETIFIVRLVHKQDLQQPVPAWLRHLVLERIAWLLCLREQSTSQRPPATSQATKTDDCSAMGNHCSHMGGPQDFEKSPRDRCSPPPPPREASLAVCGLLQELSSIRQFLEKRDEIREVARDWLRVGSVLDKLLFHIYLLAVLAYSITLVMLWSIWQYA

In the case of `Cn1cc2c(-c3cc(F)c(CN4Cc5ncccc5C4=O)c(F)c3)ccc(C(C)(C)O)c2n1` [compound 7], the inhibition at 10 µM (Potassium Channel [KATP]) is reported as 11%, the inhibition at 10 µM (Muscarinic M3) is reported as 7% and the inhibition at 10 µM (Glucocorticoid) is reported as 9%. The “contribution to metabolism, CYP450 phenotyping” value (3A4) was 96.8%, the IC50 (hERG) was greater than 30 µM and the “% Inhibition at 10 µM” value (Glutamate, NMDA, Agonism) was -3%. For the same compound, the inhibition at 10 µM (Adenosine A2A) was 3%, the inhibition at 10 µM (Cannabinoid CB1) was 25% and the inhibition at 10 µM [1] was 4%. The fraction unbound at 6 h, 5 µM [2] was 0.06, the “rM1 Agonist AChmax (%)” value (rat M1; rat M1, % ACh max, n = 5) was 17% and the EC50 (rat M1; rat M1, n = 5, read-out: rM1 Agonist EC50) was greater than 10 µM. For the same compound, the fraction unbound at 6 h, 5 µM [3] was 0.023, the inhibition at 10 µM (Serotonin (5-HT3)) was -14% and the inhibition at 10 µM (Adenosine A1) was -2%. For the same compound, the inhibition at 10 µM [4] was 8%, the total brain exposure ([5]; 56.6 mg/kg IP) was 29.8 µM and the total brain exposure ([5]; 100 mg/kg IP) was 42.2 µM. It also gave an inhibition at 10 µM (Opiate δ1 (OP1, DOP)) of -2%, an inhibition at 10 µM (Adrenergic α1A) of 13% and an inhibition at 10 µM (Dopamine D1) of 6%. It also gave an inhibition at 10 µM (Adrenergic β1) of 5%.
